Experimental data from PubChem BioAssay (NCI).
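Exposure lasted 48 hours, with cells grown in 96-well plates and compounds tested at five concentrations. GI50 is the concentration that inhibits growth by half. TGI: concentration producing complete growth inhibition.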

Experiments:
Experiment in all cases: DTP human tumour cell line panel, 48 h
HS 578T breast = tested on: HS 578T breast
NCI-H522 lung = tested on: NCI-H522 lung
A549 NSCLC = tested on: A549 NSCLC
SNB-75 CNS = tested on: SNB-75 CNS
CCRF-CEM leukemia = tested on: CCRF-CEM leukemia
HCC-2998 colon = tested on: HCC-2998 colon
T-47D breast = tested on: T-47D breast
MCF7 breast = tested on: MCF7 breast
HOP-62 NSCLC = tested on: HOP-62 NSCLC
PC-3 prostate = tested on: PC-3 prostate
SK-MEL-2 melanoma = tested on: SK-MEL-2 melanoma
K-562 leukemia = tested on: K-562 leukemia
MDA-MB-231 breast = tested on: MDA-MB-231 breast
OVCAR-8 ovarian = tested on: OVCAR-8 ovarian
OVCAR-5 ovarian = tested on: OVCAR-5 ovarian
SF-539 CNS = tested on: SF-539 CNS
M14 melanoma = tested on: M14 melanoma
SK-MEL-5 melanoma = tested on: SK-MEL-5 melanoma
NCI-H460 lung = tested on: NCI-H460 lung
COLO 205 colon = tested on: COLO 205 colon
UACC-62 melanoma = tested on: UACC-62 melanoma
U251 CNS = tested on: U251 CNS
HL-60(TB) leukemia = tested on: HL-60(TB) leukemia
KM12 colon = tested on: KM12 colon
EKVX NSCLC = tested on: EKVX NSCLC
SF-295 CNS = tested on: SF-295 CNS
MDA-MB-435 = tested on: MDA-MB-435
SW-620 colon = tested on: SW-620 colon
HCT-15 colon = tested on: HCT-15 colon
BT-549 breast = tested on: BT-549 breast
HT29 colon = tested on: HT29 colon
UACC-257 melanoma = tested on: UACC-257 melanoma
SF-268 CNS = tested on: SF-268 CNS
MOLT-4 leukemia = tested on: MOLT-4 leukemia
IGROV1 ovarian = tested on: IGROV1 ovarian
SN12C renal = tested on: SN12C renal
NCI/ADR-RES ovarian = tested on: NCI/ADR-RES ovarian
SK-MEL-28 melanoma = tested on: SK-MEL-28 melanoma
NCI-H23 lung = tested on: NCI-H23 lung
NCI-H226 lung = tested on: NCI-H226 lung
UO-31 renal = tested on: UO-31 renal
SNB-19 CNS = tested on: SNB-19 CNS
HCT-116 colon = tested on: HCT-116 colon
A498 renal = tested on: A498 renal
TK-10 renal = tested on: TK-10 renal
RPMI-8226 leukemia = tested on: RPMI-8226 leukemia
RXF 393 renal = tested on: RXF 393 renal
DU-145 prostate = tested on: DU-145 prostate
ACHN renal = tested on: ACHN renal
OVCAR-4 ovarian = tested on: OVCAR-4 ovarian
OVCAR-3 ovarian = tested on: OVCAR-3 ovarian
SK-OV-3 ovarian = tested on: SK-OV-3 ovarian
CAKI-1 renal = tested on: CAKI-1 renal
LOX IMVI melanoma = tested on: LOX IMVI melanoma
MALME-3M melanoma = tested on: MALME-3M melanoma
HOP-92 NSCLC = tested on: HOP-92 NSCLC
786-0 renal = tested on: 786-0 renal
SR leukemia = tested on: SR leukemia

Question: How did the TGI (HS 578T breast) turn out when N#Cc1cc(-c2nc3cc(F)ccc3s2)ccc1N was run?
Answer: > 100 µM

Question: What about the TGI (NCI-H522 lung) of the same compound?
Answer: > 100 µM

Question: And the TGI (A549 NSCLC)?
Answer: > 68.4 µM

Question: What about the TGI (SNB-75 CNS) of the same compound?
Answer: 6.68 µM

Question: And the TGI (CCRF-CEM leukemia)?
Answer: > 100 µM

Question: What about the TGI (HCC-2998 colon) of the same compound?
Answer: 0.0604 µM

Question: What about the TGI (T-47D breast) of the same compound?
Answer: 0.22 µM

Question: And the TGI (MCF7 breast)?
Answer: 0.583 µM

Question: What about the TGI (HOP-62 NSCLC) of the same compound?
Answer: > 100 µM

Question: What about the TGI (PC-3 prostate) of the same compound?
Answer: > 100 µM

Question: What about the TGI (SK-MEL-2 melanoma) of the same compound?
Answer: > 66.8 µM

Question: And the TGI (K-562 leukemia)?
Answer: > 100 µM

Question: And the TGI (MDA-MB-231 breast)?
Answer: > 85.1 µM

Question: And the TGI (OVCAR-8 ovarian)?
Answer: > 100 µM

Question: And the TGI (OVCAR-5 ovarian)?
Answer: 2.9 µM

Question: And the TGI (SF-539 CNS)?
Answer: 56.7 µM

Question: What about the TGI (M14 melanoma) of the same compound?
Answer: 99.7 µM

Question: What about the TGI (SK-MEL-5 melanoma) of the same compound?
Answer: > 100 µM

Question: And the TGI (NCI-H460 lung)?
Answer: 17.8 µM

Question: And the TGI (COLO 205 colon)?
Answer: > 100 µM

Question: And the TGI (UACC-62 melanoma)?
Answer: > 87.7 µM

Question: What about the TGI (U251 CNS) of the same compound?
Answer: > 82.1 µM

Question: What about the TGI (HL-60(TB) leukemia) of the same compound?
Answer: > 100 µM

Question: And the TGI (KM12 colon)?
Answer: > 32.8 µM

Question: And the TGI (EKVX NSCLC)?
Answer: 98.8 µM

Question: And the TGI (SF-295 CNS)?
Answer: > 100 µM

Question: And the TGI (MDA-MB-435)?
Answer: > 100 µM

Question: And the TGI (SW-620 colon)?
Answer: > 100 µM

Question: What about the TGI (HCT-15 colon) of the same compound?
Answer: > 100 µM

Question: What about the TGI (BT-549 breast) of the same compound?
Answer: 29.1 µM

Question: What about the TGI (HT29 colon) of the same compound?
Answer: > 100 µM

Question: What about the TGI (UACC-257 melanoma) of the same compound?
Answer: > 100 µM

Question: And the TGI (SF-268 CNS)?
Answer: > 78.3 µM

Question: And the TGI (MOLT-4 leukemia)?
Answer: > 100 µM

Question: What about the TGI (IGROV1 ovarian) of the same compound?
Answer: 13.9 µM

Question: And the TGI (SN12C renal)?
Answer: > 100 µM

Question: What about the TGI (NCI/ADR-RES ovarian) of the same compound?
Answer: > 100 µM

Question: And the TGI (SK-MEL-28 melanoma)?
Answer: > 100 µM

Question: What about the TGI (NCI-H23 lung) of the same compound?
Answer: 0.848 µM

Question: And the TGI (NCI-H226 lung)?
Answer: 79.3 µM

Question: What about the TGI (UO-31 renal) of the same compound?
Answer: > 100 µM

Question: And the TGI (SNB-19 CNS)?
Answer: > 66.6 µM

Question: What about the TGI (HCT-116 colon) of the same compound?
Answer: > 100 µM

Question: And the TGI (A498 renal)?
Answer: > 56.4 µM

Question: And the TGI (TK-10 renal)?
Answer: 1.69 µM

Question: And the TGI (RPMI-8226 leukemia)?
Answer: > 100 µM

Question: And the TGI (RXF 393 renal)?
Answer: 14.1 µM

Question: And the TGI (DU-145 prostate)?
Answer: > 100 µM

Question: And the TGI (ACHN renal)?
Answer: 62.5 µM

Question: What about the TGI (OVCAR-4 ovarian) of the same compound?
Answer: > 93.5 µM

Question: And the TGI (OVCAR-3 ovarian)?
Answer: > 100 µM

Question: And the TGI (SK-OV-3 ovarian)?
Answer: > 92.3 µM

Question: What about the TGI (CAKI-1 renal) of the same compound?
Answer: > 100 µM

Question: And the TGI (LOX IMVI melanoma)?
Answer: > 100 µM

Question: And the TGI (MALME-3M melanoma)?
Answer: > 100 µM

Question: What about the TGI (HOP-92 NSCLC) of the same compound?
Answer: 29.6 µM

Question: What about the TGI (786-0 renal) of the same compound?
Answer: > 100 µM

Question: Which results are given for CO/N=C(\COc1ccc2c(=O)cc(-c3ccccc3)oc2c1)c1ccc(F)cc1?
Answer: GI50 (HS 578T breast): 51.5 µM; TGI (HS 578T breast): > 100 µM; GI50 (NCI-H522 lung): 23.1 µM; TGI (NCI-H522 lung): 62.3 µM; GI50 (A549 NSCLC): 30.6 µM; TGI (A549 NSCLC): > 100 µM; GI50 (SNB-75 CNS): 24.1 µM; TGI (SNB-75 CNS): 55 µM; GI50 (CCRF-CEM leukemia): > 100 µM; TGI (CCRF-CEM leukemia): > 100 µM; GI50 (HCC-2998 colon): 32.3 µM; TGI (HCC-2998 colon): 96 µM; GI50 (T-47D breast): 68.4 µM; TGI (T-47D breast): > 100 µM; GI50 (HOP-62 NSCLC): 21 µM; TGI (HOP-62 NSCLC): 50.5 µM; GI50 (PC-3 prostate): 37.9 µM; TGI (PC-3 prostate): > 100 µM; GI50 (SK-MEL-2 melanoma): 24 µM; TGI (SK-MEL-2 melanoma): 60.4 µM; GI50 (K-562 leukemia): 36.5 µM; TGI (K-562 leukemia): > 100 µM; GI50 (MDA-MB-231 breast): 27.7 µM; TGI (MDA-MB-231 breast): 64 µM; GI50 (OVCAR-8 ovarian): 40.7 µM; TGI (OVCAR-8 ovarian): > 100 µM; GI50 (OVCAR-5 ovarian): 42.1 µM; TGI (OVCAR-5 ovarian): > 100 µM; GI50 (SF-539 CNS): 94.8 µM; TGI (SF-539 CNS): > 100 µM; GI50 (M14 melanoma): 36.1 µM; TGI (M14 melanoma): > 100 µM; GI50 (SK-MEL-5 melanoma): 35.1 µM; TGI (SK-MEL-5 melanoma): > 100 µM; GI50 (COLO 205 colon): > 100 µM; TGI (COLO 205 colon): > 100 µM; GI50 (UACC-62 melanoma): 29.8 µM; TGI (UACC-62 melanoma): > 100 µM; GI50 (U251 CNS): 29.2 µM; TGI (U251 CNS): 88.5 µM; GI50 (HL-60(TB) leukemia): 21 µM; TGI (HL-60(TB) leukemia): > 100 µM; GI50 (KM12 colon): 53.8 µM; TGI (KM12 colon): > 100 µM; GI50 (EKVX NSCLC): 74.4 µM; TGI (EKVX NSCLC): > 100 µM; GI50 (SF-295 CNS): 25.8 µM; TGI (SF-295 CNS): 56.9 µM; GI50 (MDA-MB-435): 10.3 µM; TGI (MDA-MB-435): 37.1 µM; GI50 (SW-620 colon): 42.6 µM; TGI (SW-620 colon): > 100 µM; GI50 (HCT-15 colon): 63.9 µM; TGI (HCT-15 colon): > 100 µM; GI50 (BT-549 breast): > 100 µM; TGI (BT-549 breast): > 100 µM; GI50 (HT29 colon): 33.6 µM; TGI (HT29 colon): > 100 µM; GI50 (UACC-257 melanoma): 32.1 µM; TGI (UACC-257 melanoma): > 100 µM; GI50 (IGROV1 ovarian): 21.9 µM; TGI (IGROV1 ovarian): 66.6 µM; GI50 (SN12C renal): 36.2 µM; TGI (SN12C renal): > 100 µM; GI50 (NCI/ADR-RES ovarian): 34.4 µM; TGI (NCI/ADR-RES ovarian): > 100 µM; GI50 (SK-MEL-28 melanoma): 89.4 µM; TGI (SK-MEL-28 melanoma): > 100 µM; GI50 (NCI-H23 lung): 92.7 µM; TGI (NCI-H23 lung): > 100 µM; GI50 (NCI-H226 lung): > 100 µM; TGI (NCI-H226 lung): > 100 µM; GI50 (UO-31 renal): > 100 µM; TGI (UO-31 renal): > 100 µM; GI50 (HCT-116 colon): 28.4 µM; TGI (HCT-116 colon): > 100 µM; GI50 (A498 renal): > 100 µM; TGI (A498 renal): > 100 µM; GI50 (TK-10 renal): 41.7 µM; TGI (TK-10 renal): > 100 µM; GI50 (RPMI-8226 leukemia): > 100 µM; TGI (RPMI-8226 leukemia): > 100 µM; GI50 (RXF 393 renal): 27.7 µM; TGI (RXF 393 renal): 87.5 µM; GI50 (DU-145 prostate): 76.1 µM; TGI (DU-145 prostate): > 100 µM; GI50 (ACHN renal): 34 µM; TGI (ACHN renal): > 100 µM; GI50 (OVCAR-4 ovarian): 58.2 µM; TGI (OVCAR-4 ovarian): > 100 µM; GI50 (OVCAR-3 ovarian): 14 µM; TGI (OVCAR-3 ovarian): 47.7 µM; GI50 (SK-OV-3 ovarian): 41.4 µM; TGI (SK-OV-3 ovarian): > 100 µM; GI50 (CAKI-1 renal): 22.7 µM; TGI (CAKI-1 renal): 65.6 µM; GI50 (LOX IMVI melanoma): 67.5 µM; TGI (LOX IMVI melanoma): > 100 µM; GI50 (MALME-3M melanoma): 19.3 µM; TGI (MALME-3M melanoma): 45.9 µM; GI50 (SR leukemia): 14.5 µM; TGI (SR leukemia): 47.2 µM; GI50 (786-0 renal): 20.7 µM; TGI (786-0 renal): 49.8 µM
